From patent publication US11167015B2, “Arginine and its use as a T cell modulator” (INSTITUTE FOR RESEARCH IN BIOMEDICINE, priority 2016, dated 2021)

Assays:
mTOR = experiment: Analysis of phosphorylation levels of 4E-BP and S6K1; assay type: cell-based, human; details: 3 mM L-arginine supplementation, 4 days activated
Method: Naïve CD4^+ T cells were activated with plate-bound antibodies to CD3 and CD28. Four days after activation, cells were lysed and analyzed by Western blot with the following antibodies obtained from Cell Signaling Technology. Phospho-p70 S6K(Thr389) #9205; p70 S6 Kinase #9202; Phospho-4E-BP1 (Thr37/46) #2855; 4E-BP1 #9644. Rapamycin (Sigma) was used at 100 nM.

Naïve CD8+ OT-I T cells = experiment: Tcm-like phenotype and IFN-γ of OT-I T cells after in vitro priming; assay type: cell-based, mouse
Text: (§1) FIG. 7. CD8+ T cells with increased L-arginine levels display improved anti-tumor activity in vivo. (A) Survival of activated mouse CD8+OT-I T cells (4 d) after IL-2 withdrawal. Data points represent the difference between the percentage of living T cells from cultures performed in L-Arg medium or Ctrl medium; n=11. (B) CD90.1+CD45.1/2+ and CD90.1+CD45.1+ naïve CD8+ OT-I T cells were activated for 4 days in Ctrl medium or L-Arg medium, respectively. Equal numbers of the congenically marked activated OT-I cells were co-transferred into Cd3e−/− mouse and the number of living T cells was measured in pooled spleen and lymph nodes at the indicated time points; n=3 at each time point. (C) Naïve CD8+ OT-I T cells were activated with CD3+CD28 antibodies in L-Arg medium or control (Ctrl) medium. Five days after activation, the percentage of Tcm-like cells (CD44hi, CD62L+) was measured by flow cytometry; n=15. (D) Naïve OT-I CD8+ T cells were activated in L-Arg medium or Ctrl medium and IFN-γ was quantified in culture supernatants after 5 days; n=15. (E) Same as in (D) but T cells were re-activated on day 5 day with PMA/Ionomycin; n=15. (F, G) B16.OVA melanoma cells were injected into C57BL/6 mice and tumors were allowed to grow for 10 days. Naïve OT-I CD8+ T cells were activated in vitro in L-Arg medium or Ctrl medium and injected into tumor bearing mice. Tumor burden (F) and survival (G) were assessed over time. Data are representative of three independent experiments, each performed with 7-9 mice per group. (H) B16.OVA melanoma cells were injected into C57BL/6 mice and tumors were allowed to grow for 6 clays. At day 6, naïve CD8+ OT-I T cells were transferred into tumor bearing mice and at day 7 mice were immunized with OVA peptide. Starting one day before the T cell transfer, PBS or L-arginine (1.5 mg/g body weight) was orally administered daily; n=19 from three independent experiments. Bars represent the s.e.m. *p<0.05, **p<0.01, ***p<0.001, ****p<0.0001 (Student's t-test). In (G) *p<0.05 as determined by log-rank test comparison between curves. […]

activated CD4+ T cells = experiment: IL-2 withdrawal assay and assessment of cell viability, CD4+ T cells; assay type: cell-based, human
Method: Naïve CD4 T cells were activated with plate-bound CD3 and CD28 antibodies. 48 h after activation IL-2 was added to culture media (500 U ml^−1). After a further 3 days of culturing, cells were washed, counted and equal cell numbers were plated in medium devoid of IL-2. The withdrawal medium was no longer supplemented with e.g. L-arginine. Cell viability was assessed with annexin V.

B16.OVA melanoma = experiment: Tumor experiment: in vitro activation of T cells; assay type: in vivo, C57BL/6 mice; details: L-arginine-treated OT-I T cells transferred into B16 OVA tumor bearing mice
Method: B16-OVA melanoma cells were cultured in RPMI 1640 plus 10% FCS, 1% penicillin/streptomycin and 2 mM glutamine. Before injection into mice, cells were trypsinized and washed twice in PBS. Then, 5×10^5 cells were subcutaneously injected in the dorsal region of Wt C57BL/6 mice. Ten days post injection, 5×10^6 OT-I cells, that have been activated in vitro as described above, were injected into the tail vein of tumor-bearing mice. The size of tumors was measured in a blinded fashion using calipers.

mouse CD8+ OT-I T cells = experiment: Survival of activated OT-I T cells in vitro after IL-2 withdrawal; assay type: cell-based; details: L-arginine-supplemented medium 4 days
Text: as §1, with “Naïve OT-I CD8+ T cells were activated in vitro in L-Arg medium or Ctrl medium and injected into tumor bearing mice.” left out, “Data are representative of three independent experiments, each performed with 7-9 mice per group. (H) B16.OVA melanoma cells were injected into C57BL/6 mice and tumors were allowed to grow for 6 clays. At day 6, naïve CD8+ OT-I T cells were transferred into tumor bearing mice and at day 7 mice were immunized with OVA peptide. Starting one day before the T cell transfer, PBS or L-arginine (1.5 mg/g body weight) was orally administered daily; n=19 from three independent experiments. Bars represent the s.e.m. *p<0.05, **p<0.01, ***p<0.001, ****p<0.0001 (Student's t-test).” left out

[1] = test system: CD44hi CD4+ TCR transgenic T cells; experiment: Mouse experiment with dietary L-arginine: transferred HA TCR transgenic T cells in draining lymph nodes; assay type: in vivo, BALB/c mice; details: daily oral 1.5 mg/g body weight, 15 days after immunization with HA110-119 in CFA
Method: 2×10^5 CD90.1^+ CD4^+ HA TCR-transgenic T cells, on a BALB/c background, were adoptively transferred in Wt CD90.2^4 BALB/c mice. The day after, host mice were immunized s.c. with influenza HA110-119 peptide (purchased from Anaspec) emulsified in CFA. L-Arg (1.5 g/kg body weight) or PBS, as control, was daily orally administrated, starting 1 day before T cell transfer and until the end of the experiment. Draining lymph nodes were analyzed on day 15 post immunization for the presence of transferred transgenic memory CD44^hi CD90.1^+ CD4^+ T cells. Sera were collected 30 min after oral L-arginine administration to mice and L-arginine and L-threonine concentrations in sera were measured on a MassTrak (Waters) instrument at the functional genomics center in Zurich. To determine intracellular L-arginine levels, activated T cells were isolated from draining lymph nodes 60 hours after activation and 30 min after the daily L-arginine administration. Metabolites were extracted with hot 70% ethanol and analyzed by HILIC LC-MS/MS.

With `N=C(N)NCCC[C@H](N)C(=O)O` [L-arginine] the “phosphorylation levels of two targets of mTOR (p70 S6K1 and 4E-BP)” value (mTOR) was “did not change”, the “Tcm-like state (CD44hi, CD62L+)” value (Naïve CD8+ OT-I T cells; five days after activation in L-Arg medium) was “maintained a Tcm-like state” and the “IFN-γ production upon reactivation” value (Naïve CD8+ OT-I T cells; re-activated on day 5 with PMA/Ionomycin) was “even more IFN-γ than controls”. For the same compound, the “IFN-γ secretion after in vitro priming” value (Naïve CD8+ OT-I T cells; supernatants after 5 days) was “secreted less IFN-γ than controls”, the “time of addition after T cell activation at which most effective on survival” value (activated CD4+ T cells; L-Arg 3 mM added at indicated time points) was no more than 48 h and the “survival of activated CD4+ T cells in the absence of exogenous cytokines” value (activated CD4+ T cells; metabolites 3 mM, except for spermidine 0.1 mM, 5 days after IL-2 withdrawal) was “significantly increased”. For the same compound, the “anti-tumor response: survival of mice” value (B16.OVA melanoma) was “increased survival of mice”, the “anti-tumor response: tumor size” value (B16.OVA melanoma) was “reduction of tumor size” and the “survival capacity of OT-I T cells in vitro” value (mouse CD8+ OT-I T cells) was “higher survival capacity”. For the same compound, the “CD44hi CD4+ TCR transgenic T cells recovered in draining lymph nodes compared to control mice” value [1] was “Three times more”.
